Data as given in ChEMBL document CHEMBL5257126, “Moderately lipophilic 2-(Het)aryl-6-dithioacetals, 2-phenyl-1,4-benzodioxane-6-dithioacetals and 2-phenylbenzofuran-5-dithioacetals: Synthesis and primary evaluation as potential antidiabetic AMPK-activators” (Bioorg Med Chem, 2023).
Calls of active or inactive are those of the source. The calls are words filed in the database; no cut-off is given here.

Experiments:
L6 [1] = experiment: Induction of glucose uptake in rat L6 cells assessed as fold increase by measuring 2-NBDG uptake at 25 uM preincubated in high glucose medium for 48 hrs followed by compound addition and measured after 24 hrs; type: functional
L6 [2] = experiment: Induction of glucose uptake in rat L6 cells assessed as fold increase by measuring 2-NBDG uptake at 0.25 uM preincubated in high glucose medium for 48 hrs followed by compound addition and measured after 24 hrs; type: functional
L6 [3] = experiment: Induction of glucose uptake in rat L6 cells assessed as fold increase by measuring 2-NBDG uptake at 2.5 uM preincubated in high glucose medium for 48 hrs followed by compound addition and measured after 24 hrs; type: functional
[4] = Tmax in C57BL/6 mouse at 25 mg/kg, po; type: ADME, organism-based; details: in vivo
[5] = Half life in C57BL/6 mouse at 25 mg/kg, po; type: ADME, organism-based; details: in vivo
[6] = target: T1, AMP-activated protein kinase, AMPK (Rattus norvegicus) (UniProt P54645+Q09137+P80386+P80385+Q9QZH4+Q6V7V4+D4A7E4); experiment: Activation of AMPK phosphorylation in rat INS-1E cells incubated for 24 hrs; type: cell-based; details: filed as activator, dose 0.5-2 µM
[7] = Clearance in C57BL/6 mouse at 5 mg/kg, iv; type: ADME, organism-based; details: in vivo
L6 [8] = experiment: Inhibition of AKT phosphorylation at Ser473 in rat L6 cells assessed as fold reduction at 1 uM incubated for 24 hrs by Western blot analysis (reference value: 1.1); type: cell-based
[9] = target: T2, Serine/threonine-protein kinase STK11 (Rattus norvegicus) (UniProt D4AE59); experiment: Activation of LKB1 in rat L6 cells assessed as fold increase in phosphorylation at Ser428 at 5 uM incubated for 24 hrs by Western blot analysis (reference value: 4.6); type: cell-based; details: filed as activator
T2 sequence (whole entry): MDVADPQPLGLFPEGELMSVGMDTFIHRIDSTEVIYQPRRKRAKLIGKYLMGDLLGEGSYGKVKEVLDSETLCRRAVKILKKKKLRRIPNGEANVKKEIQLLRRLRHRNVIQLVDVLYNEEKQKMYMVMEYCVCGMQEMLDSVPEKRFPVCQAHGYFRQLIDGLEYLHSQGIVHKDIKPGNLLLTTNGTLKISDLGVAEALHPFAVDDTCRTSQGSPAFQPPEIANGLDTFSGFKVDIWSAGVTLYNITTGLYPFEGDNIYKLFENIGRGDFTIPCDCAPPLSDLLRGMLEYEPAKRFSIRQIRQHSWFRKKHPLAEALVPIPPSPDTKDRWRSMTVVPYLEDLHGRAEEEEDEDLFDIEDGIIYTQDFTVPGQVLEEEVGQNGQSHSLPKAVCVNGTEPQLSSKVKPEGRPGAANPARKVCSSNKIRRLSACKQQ

INS-1E [10] = experiment: Anti-hyperglycemic activity in rat INS-1E cells assessed as insulin secretion […] after 24 hrs; type: functional, cell-based
[11] = Cmax in C57BL/6 mouse at 25 mg/kg, po; type: ADME, organism-based; design: dose 25 mg/kg, route po; details: in vivo
L6 [12] = experiment: Inhibition of AKT phosphorylation at Ser473 in rat L6 cells assessed as fold reduction at 0.5 uM incubated for 24 hrs by Western blot analysis (reference value: 1.1); type: cell-based
[13] = target: T2, Serine/threonine-protein kinase STK11 (Rattus norvegicus); experiment: Activation of LKB1 in rat L6 cells assessed as fold increase in phosphorylation at Ser428 at 2.5 uM incubated for 24 hrs by Western blot analysis (reference value: 4.6); type: cell-based; details: filed as activator
[14] = target: T2, Serine/threonine-protein kinase STK11 (Rattus norvegicus); experiment: Activation of LKB1 in rat L6 cells assessed as fold increase in phosphorylation at Ser428 at 0.1 uM incubated for 24 hrs by Western blot analysis (reference value: 4.6); type: cell-based; details: filed as activator
[15] = Volume of distribution at steady state in C57BL/6 mouse at 5 mg/kg, iv; type: ADME, organism-based; details: in vivo, read-out: Vdss
INS-1E [16] = experiment: Anti-hyperglycemic activity in rat INS-1E cells assessed as glucose stimulated insulin secretion at 1 to 2 uM after 24 hrs; type: functional, cell-based; details: dose 1-2 µM
[17] = target: T2, Serine/threonine-protein kinase STK11 (Rattus norvegicus); experiment: Activation of LKB1 in rat L6 cells assessed as fold increase in phosphorylation at Ser428 at 0.25 uM incubated for 24 hrs by Western blot analysis (reference value: 4.6); type: cell-based; details: filed as activator
INS-1E [18] = experiment: Anti-hyperglycemic activity in rat INS-1E cells assessed as total intracellular insulin secretion at 2 uM after 24 hrs; type: functional, cell-based
L6 [19] = experiment: Inhibition of AKT phosphorylation at Ser473 in rat L6 cells assessed as fold reduction at 10 uM incubated for 24 hrs by Western blot analysis (reference value: 1.1); type: cell-based
L6 [20] = experiment: Inhibition of AKT phosphorylation at Ser473 in rat L6 cells assessed as fold reduction at 0.1 uM incubated for 24 hrs by Western blot analysis (reference value: 1.1); type: cell-based
[21] = target: T1, AMP-activated protein kinase, AMPK (Rattus norvegicus); experiment: Activation of AMPK phosphorylation at Thr172 residue in rat L6 cells assessed as fold increase at 2.5 uM incubated for 24 hrs by Western blot analysis (reference value: 0.6); type: cell-based; details: filed as activator
L6 [22] = experiment: Inhibition of AKT phosphorylation at Ser473 in rat L6 cells assessed as fold reduction at 0.25 uM incubated for 24 hrs by Western blot analysis (reference value: 1.1); type: cell-based
[23] = target: T1, AMP-activated protein kinase, AMPK (Rattus norvegicus); experiment: Activation of AMPK phosphorylation in rat INS-1E beta-cells at 2 uM incubated for 24 hrs; type: cell-based; details: filed as activator
L6 [24] = experiment: Inhibition of AKT phosphorylation at Ser473 in rat L6 cells assessed as fold reduction at 2.5 uM incubated for 24 hrs by Western blot analysis (reference value: 1.1); type: cell-based
[25] = target: T1, AMP-activated protein kinase, AMPK (Rattus norvegicus); experiment: Activation of AMPK phosphorylation at Thr172 residue in rat L6 cells assessed as fold increase at 5 uM incubated for 24 hrs by Western blot analysis (reference value: 0.6); type: cell-based; details: filed as activator
INS-1E [26] = experiment: Anti-hyperglycemic activity in rat INS-1E cells assessed as basal insulin secretion after 24 hrs; type: functional, cell-based
[27] = Oral bioavailability in C57BL/6 mouse at 25 mg/kg; type: ADME, organism-based; details: in vivo
[28] = target: T1, AMP-activated protein kinase, AMPK (Rattus norvegicus); experiment: Activation of AMPK phosphorylation at Thr172 residue in rat L6 cells assessed as fold increase at 1 uM incubated for 24 hrs by Western blot analysis (reference value: 0.6); type: cell-based; details: filed as activator
[29] = target: T2, Serine/threonine-protein kinase STK11 (Rattus norvegicus); experiment: Activation of LKB1 in rat L6 cells assessed as fold increase in phosphorylation at Ser428 at 1 uM incubated for 24 hrs by Western blot analysis (reference value: 4.6); type: cell-based; details: filed as activator
[30] = target: T2, Serine/threonine-protein kinase STK11 (Rattus norvegicus); experiment: Activation of LKB1 in rat L6 cells assessed as fold increase in phosphorylation at Ser428 at 10 uM incubated for 24 hrs by Western blot analysis (reference value: 4.6); type: cell-based; details: filed as activator
[31] = target: T1, AMP-activated protein kinase, AMPK (Rattus norvegicus); experiment: Activation of AMPK phosphorylation at Thr172 residue in rat L6 cells assessed as fold increase at 0.5 uM incubated for 24 hrs by Western blot analysis (reference value: 0.6); type: cell-based; details: filed as activator
L6 [32] = experiment: Inhibition of AKT phosphorylation at Ser473 in rat L6 cells assessed as fold reduction at 5 uM incubated for 24 hrs by Western blot analysis (reference value: 1.1); type: cell-based
[33] = Half life in C57BL/6 mouse blood; type: ADME, tissue-based
[34] = target: T1, AMP-activated protein kinase, AMPK (Rattus norvegicus); experiment: Activation of AMPK phosphorylation at Thr172 residue in rat L6 cells assessed as fold increase at 10 uM incubated for 24 hrs by Western blot analysis (reference value: 0.6); type: cell-based; details: filed as activator
[35] = Half life in C57BL/6 mouse at 5 mg/kg, iv; type: ADME, organism-based; details: in vivo
[36] = target: T2, Serine/threonine-protein kinase STK11 (Rattus norvegicus); experiment: Activation of LKB1 in rat L6 cells assessed as fold increase in phosphorylation at Ser428 at 0.5 uM incubated for 24 hrs by Western blot analysis (reference value: 4.6); type: cell-based; details: filed as activator
[37] = target: T1, AMP-activated protein kinase, AMPK (Rattus norvegicus); experiment: Activation of AMPK phosphorylation in rat L6 cells incubated for 24 hrs by Western blot analysis; type: cell-based; details: filed as activator, dose 0.6-9.31 µM
[38] = target: T1, AMP-activated protein kinase, AMPK (Rattus norvegicus); experiment: Activation of AMPK phosphorylation at Thr172 residue in rat L6 cells assessed as fold increase at 0.1 uM incubated for 24 hrs by Western blot analysis (reference value: 0.6); type: cell-based; details: filed as activator
[39] = target: T1, AMP-activated protein kinase, AMPK (Rattus norvegicus); experiment: Activation of AMPK phosphorylation at Thr172 residue in rat L6 cells assessed as fold increase at 0.25 uM incubated for 24 hrs by Western blot analysis (reference value: 0.6); type: cell-based; details: filed as activator

SMILES: c1cncc(C2CCc3cc(C4SCCCS4)ccc3O2)c1 (stereo unspecified)
- fold change (FC) (L6 [1]): 1.3
- fold change (FC) (L6 [2]): 1
- fold change (FC) (L6 [3]): 1

SMILES: OCCOCCSC(SCCOCCO)c1ccc2c(c1)CCC(c1ccccc1)O2 (stereo unspecified)
- fold change (FC) (L6 [1]): 1.1
- fold change (FC) (L6 [2]): 1
- fold change (FC) (L6 [3]): 1.1

SMILES: O[C@H]1CS[C@H](c2ccc3c(c2)CCC(c2ccccc2)O3)SC1 (stereo partly specified)
- fold change (FC) (L6 [1]): 1
- fold change (FC) (L6 [2]): 1.1
- fold change (FC) (L6 [3]): 0.9

SMILES: c1cc(C2CCc3cc(C4SCCCS4)ccc3O2)ccn1 (stereo unspecified)
- fold change (FC) (L6 [1]): 1.1
- Tmax [4]: 30 min
- half-life [5]: 66.6 min
- Activity [6]: Dose-Dependent Effect
- clearance [7]: 31.2 mL/min/kg
- fold change (FC) (L6 [8]): 0.3
- fold change (FC) [9]: 4.78
- Activity (INS-1E [10]): Dose-Dependent Effect
- Cmax [11]: 7630 ng/mL
- fold change (FC) (L6 [12]): 0.12
- fold change (FC) [13]: 4.1
- fold change (FC) [14]: 5.56
- Vd [15]: 1.23 L/kg
- Activity (INS-1E [16]): Active
- fold change (FC) [17]: 5.33
- Activity (INS-1E [18]): inactive
- fold change (FC) (L6 [19]): 0.18
- fold change (FC) (L6 [20]): 1.1
- fold change (FC) [21]: 5.11
- fold change (FC) (L6 [22]): 0.22
- Activity [23]: Active
- fold change (FC) (L6 [24]): 0.18
- fold change (FC) (L6 [2]): 1.8
- fold change (FC) [25]: 6.32
- Activity (INS-1E [26]): inactive
- bioavailability [27]: 99%
- fold change (FC) [28]: 1.58
- fold change (FC) [29]: 5.71
- fold change (FC) [30]: 5
- fold change (FC) (L6 [3]): 1.2
- fold change (FC) [31]: 1.33
- fold change (FC) (L6 [32]): 0.25
- half-life [33]: 66.6 min
- fold change (FC) [34]: 9
- half-life [35]: 49.6 min
- fold change (FC) [36]: 5.25
- Activity [37]: Dose-Dependent Effect
- fold change (FC) [38]: 0.5
- fold change (FC) [39]: 2.33

SMILES: COc1ccc(C2CCc3cc(C4SCCCCS4)ccc3O2)cc1 (stereo unspecified)
- fold change (FC) (L6 [1]): 2.2
- fold change (FC) (L6 [2]): 1.4
- fold change (FC) (L6 [3]): 1.9

SMILES: O=C(NCCSC(SCCNC(=O)OCc1ccccc1)c1ccc2c(c1)CCC(c1ccccc1)O2)OCc1ccccc1 (stereo unspecified)
- fold change (FC) (L6 [1]): 1.1
- fold change (FC) (L6 [2]): 0.9
- fold change (FC) (L6 [3]): 1.1

SMILES: OCCSC(SCCO)c1ccc2c(c1)CCC(c1cccnc1)O2 (stereo unspecified)
- fold change (FC) (L6 [1]): 1.9
- fold change (FC) (L6 [2]): 1.4
- fold change (FC) (L6 [3]): 1.7

SMILES: OCCSC(SCCO)c1ccc2c(c1)CCC(c1ccccc1)O2 (stereo unspecified)
- fold change (FC) (L6 [1]): 1.5
- fold change (FC) (L6 [2]): 1
- fold change (FC) (L6 [3]): 1

SMILES: O=C(O)CCSC(SCCC(=O)O)c1ccc2c(c1)CCC(c1ccccc1)O2 (stereo unspecified)
- fold change (FC) (L6 [1]): 1.2
- fold change (FC) (L6 [2]): 0.9
- fold change (FC) (L6 [3]): 1.1

SMILES: c1ccc(-c2cc3cc(C4SCCCS4)ccc3o2)cc1
- fold change (FC) (L6 [1]): 1.2
- fold change (FC) (L6 [2]): 1
- fold change (FC) (L6 [3]): 1
